{"source": "patent US20230357354A1", "about": "“CD38-BINDING CD31 PEPTIDES AND USES THEREOF” (ENCEFA, priority 2020, published 2023)", "key": {"human Daudi cells [1]": {"test_system": "human Daudi cells", "type": "cell-based"}, "[2]": {"test_system": "dopaminergic (TH^+) neurons in midbrain cultures", "test": "MPP+ intoxication model: DA (TH+) cell survival in midbrain cultures", "type": "cell-based, Wistar rat", "settings": "MPP^+ in vitro model; antibodies 1 µg/mL, genistein 10 nM, vacuolin-1 10 µM, endosidin2 40 µM", "experimental": "Animals were treated in accordance with the Guide for the Care and Use of Laboratory Animals (National Research Council, 1996), European Directive 86/609, and the guidelines of the local institutional animal care and use committee. Cultures were prepared from the ventral mesencephalon of gestational age 15.5 Wistar rat embryos (Janvier Breeding Center, Le Genest St Isle, France). Dissociated cells in suspension obtained by mechanical trituration of midbrain tissue pieces were seeded at a density of 1.2-1.5×10^5 cells/cm^2 onto tissue culture supports precoated with 1 mg/mL polyethylenimine diluted in borate buffer pH 8.3 as described (Michel et al., 1997. J Neurochem. 69(4):1499-507). The cultures were then maintained in N5 medium supplemented with 5 mM glucose, 5 % horse serum, and 0.5 % fetal calf serum, except for the first 3 DIV, when the concentration of fetal calf serum was 2.5% to favor initial maturation of the cultures (Guerreiro et al., 2008. Mol Pharmacol. 74(4):980-9). They were fed daily by replacing 70% of the medium. Routinely, mesencephalic cultures were established on Nunc 24-well culture plates (Thermofischer Scientific, Rochester, NY). Note that these cultures contain tyrosine hydroxylase (TH)^+ neurons that were exclusively dopaminergic (Traver et al., 2006. Mol Pharmacol. 70(1):30-40). TH^+ neurons represented approximately 1-2% of the total number of neuronal cells present in these cultures. The evaluation of the survival of DA neurons was performed by counting cells immunopositive for TH as described (Toulorge et al., 2011. Faseb J. 25(8):2563-73).\nTreatments with MPP^+ were performed in cultures where the spontaneous death process was prevented by long-term exposure to depolarizing concentrations of K^+ (30 mM), in the presence of the glutamate receptor antagonist MK801 (5 µM) to prevent unwanted excitotoxic insults as described previously (Douhou et al., 2001. J Neurochem. 78(1):163-74). Treatments with MPP^+ and potential neuroprotective molecules were carried out between 5 and 7 DIV.\nThe cultures were fixed for 12 min using 4 % formaldehyde in Dulbecco’s phosphate-buffered saline (PBS), then washed twice with PBS before an incubation step at 4° C. for 24 hours with the following antibodies. A monoclonal anti-TH antibody diluted 1/5000 (ImmunoStar, Inc., Hudson, WI) was used to assess the survival of DA neurons. Antibody was diluted in PBS containing 0.2 % Triton X-100. Detection of the primary antibodies was performed with an Alexa Fluor-488 conjugate of an anti-mouse IgG antibody.\nFor this purpose, spontaneously occurring DA cell death was prevented by a treatment combining depolarizing concentrations of K^+ (30 mM) and MK801 (5 µM), a glutamate receptor antagonist used to prevent unwanted excitotoxic insult. The cultures were then exposed to 3 µM MPP^+ between 5 and 7 days in vitro (DIV) to achieve a loss of approximately 50% of DA neurons."}, "6-OHDA mouse model": {"test_system": "6-OHDA mouse model", "test": "6-OHDA mouse model, number of DA (TH+) neurons in the substantia nigra pars compacta", "type": "in vivo, mice", "settings": "15 mg/kg iv one day before 6-OHDA icv injection", "experimental": "Animals were treated in accordance with the Guide for the Care and Use of Laboratory Animals (National Research Council, 1996), with the European Directive 2010/63/EU, and the guidelines of the local institutional animal care and use committee. For all studies, 8 to 10 weeks-old male C57B1/6 mice (Janvier, France) were used. They were maintained on a 12:12 hours light/dark cycle with lights on at 8 a.m. The room temperature was kept at 20° C., with free access to standard diet and tap water.\nTwo in vivo mouse models were used: the 6-OHDA mouse model and the MPTP mouse model. For the 6-OHDA mouse model, the intoxication protocol was based on the unilateral stereotaxic intrastriatal injection of 6-OHDA in the right striatum. Intracerebral or intravenous injections of treatments were made either the day before the surgical stereotaxic procedure, concomitantly with 6-OHDA during the surgical stereotaxic procedure, or two days after 6-OHDA injection. Animals were sacrificed 8 days after the surgical stereotaxic procedure.\nFor unilateral 6-OHDA mouse model, animals were anesthetized using Chloral hydrate (400 mg/kg, i.p.) and placed into a stereotactic frame adapted to mice. The injection was performed using a Hamilton syringe at the following coordinates: AP: + […] (corresponding to the atlas of Franklin and Paxinos, 1997). […]"}, "DSS mouse model": {"test_system": "DSS mouse model", "test": "DSS-induced colitis mouse model, colon length", "type": "in vivo, mice", "experimental": "(§1) Experimental colitis was induced in mice by giving drinking water ad libitum containing 3 % (w/v) DSS for 5 days, while control mice received tap water only. Test compounds were intravenously administered (15 mg/kg) when DSS treatment began. Mice were sacrificed 9 days after the beginning of DSS treatment.\nAdministration of DSS causes human ulcerative colitis-like pathologies due to its toxicity to colonic epithelial cells, which results in compromised mucosal barrier function. Clinical observations similar to human pathologies, such as weight loss, diarrhea and occult blood in stool, are commonly observed in the DSS model. Moreover, diminution of the colon’s length is characteristic of this model.\nas §1, with “3%” for “3 %”, “compounds (SEQ ID NO: 6 and SEQ ID NO: 10)” for “compounds”, “subcutaneously” for “intravenously”, “everyday (300 µg/kg) starting” for “(15 mg/kg)”"}, "human Daudi cells [3]": {"test_system": "human Daudi cells", "type": "cell-based", "settings": "glucose-deprived cells, 1 hour treatment (1 µM per figure legends; 10 µg/mL per method), 2-NBDG 500 µM 30 minutes", "experimental": "Human Daudi cells cultured in 75 cm^2 flask were centrifuged ( 300 g, 3 minutes), resuspended in warmed PBS supplemented with 10 % goat serum and seeded in 96-well microplate ( 100 µL, 2 × 10^6 cells/mL) in order to deprive cells from glucose. Cells were treated with test treatments (10 µg/mL) for 1 hour (37° C.). Cells were then incubated with 500 µM of the fluorescent and non-metabolizable glucose analog 2-NBDG ((2R,3R,4S,5R)-3,4,5,6-tetrahydroxy-2-[(7-nitro-2,1,3-benzoxadiazol-4-yl)amino]hexanal; Thermo Fischer) for 30 minutes at 37° C., and washed 4 times with PBS containing 10 % of goat serum. Images were acquired using a Zeiss microscope (20 X) and the relative fluorescence intensity of 30 cells was determined using Fiji.\nTo determine the effect of test compounds on glucose uptake, we developed a cellular model based on the use of human Daudi cells, a cell line known to strongly express CD38.\nHuman Daudi cells were plated in culture medium deprived of glucose and exposed to test treatments (peptides of Table 6) for 1 hour and then incubated with the non-metabolizable, fluorescent glucose 2-NBDG. After 30 minutes of incubation, cells were washed and imaged using a microscope. Fluorescence levels were determined using Fiji."}}, "note": "Where two headings read alike, the source gives them in different places. Bridge positions count the residues as written; N and C are the ends. Ends that are not written are not given here. Peptide text beside a SMILES is read from it."}
{"molecule": "CC[C@H](C)[C@@H]1NC(=O)[C@H](C(C)C)NC(=O)[C@H](Cc2ccccc2)NC(=O)[C@H](CC(N)=O)NC(=O)[C@H](CCC(N)=O)NC(=O)[C@H](CC(=O)O)NC(=O)[C@H](CCCNC(=N)N)NC(=O)[C@@H](N)CSSC[C@@H](C(=O)O)NC(=O)[C@H](CCC(N)=O)NC(=O)[C@H](CCC(=O)O)NC(=O)[C@H](CCC(=O)O)NC(=O)[C@H](C(C)C)NC(=O)[C@@H]2CCCN2C(=O)[C@H](Cc2ccccc2)NC(=O)[C@H](CCC(=O)O)NC(=O)[C@H](CC(C)C)NC1=O", "note": "[SEQ ID NO: 9] (H-CRDQNFVILEFPVEEQC-OH; disulfide 1-17 (inferred); N-terminus and C-terminus assumed)", "values": [{"measurement": "EC50", "setting": "human Daudi cells [1]; 1 h", "value": "~0.1", "unit": "nM"}]}
{"molecule": "COc1cc(/C=N/NC(=O)c2cccc(F)c2)cc(I)c1O", "note": "[endosidin2]", "values": [{"measurement": "effect on the neuroprotective effect of agonistic anti-CD38 antibody clone HB7 (1 µg/mL)", "setting": "[2]", "value": "antagonized"}, {"measurement": "effect on the neuroprotective effect of sCD31 (1 µg/mL)", "setting": "[2]", "value": "antagonized"}]}
{"molecule": "O=c1c(-c2ccc(O)cc2)coc2cc(O)cc(O)c12", "note": "[genistein]", "values": [{"measurement": "effect on the neuroprotective effect of agonistic anti-CD38 antibody clone HB7 (1 µg/mL)", "setting": "[2]", "value": "antagonized"}, {"measurement": "effect on the neuroprotective effect of sCD31 (1 µg/mL)", "setting": "[2]", "value": "antagonized"}]}
{"molecule": "Ic1cccc(/C=N/Nc2nc(N3CCOCC3)nc(N(c3ccccc3)c3ccccc3)n2)c1", "note": "[vacuolin-1]", "values": [{"measurement": "effect on the neuroprotective effect of agonistic anti-CD38 antibody clone HB7 (1 µg/mL)", "setting": "[2]", "value": "antagonized"}, {"measurement": "effect on the neuroprotective effect of sCD31 (1 µg/mL)", "setting": "[2]", "value": "antagonized"}]}
{"molecule": "Daratumumab", "values": [{"measurement": "neuroprotective effect on DA neurons", "setting": "6-OHDA mouse model", "value": "failed to demonstrate neuroprotective activity"}]}
{"molecule": "NSRDQNFVILEFPVE [SEQ ID NO: 6]", "values": [{"measurement": "colon length", "setting": "DSS mouse model; 300 µg/kg s.c. daily from start of DSS, 3% DSS 5 days, sacrifice day 9", "value": "statistically significant improvement in colon length"}, {"measurement": "potency on colon length compared with SEQ ID NO: 10", "setting": "DSS mouse model; same dosing regimen, 300 µg/kg s.c. daily", "value": "less potent than SEQ ID NO: 10"}, {"measurement": "EC50", "setting": "human Daudi cells [1]; 1 h", "value": "~13", "unit": "nM"}]}
{"molecule": "human sCD31: soluble form of human CD31, amino acid residues 35 to 493 of SEQ ID NO: 1", "values": [{"measurement": "glucose uptake (2-NBDG fluorescence)", "setting": "human Daudi cells [3]", "value": "increased glucose uptake to similar levels to that observed in the presence of insulin"}, {"measurement": "EC50", "setting": "human Daudi cells [1]; dose response, 2-NBDG fluorescence, read-out: EC50 on glucose uptake", "value": "~5", "unit": "nM"}]}
